The target of experiment [1] is Induced myeloid leukemia cell differentiation protein Mcl-1/Bcl-2-like protein 11 (Homo sapiens, UniProt Q07820). Nature of the experiment: Inhibition of N-terminal GST-tagged human recombinant Mcl-1 expressed in Escherichia coli /human Bim measured for 60 mins by TR-FRET based LanthaScreen Eu-Kinase binding assay. On the technique in general: TR-FRET usually uses a lanthanide donor and a delayed reading to cut background.

The target of another experiment is BCL2/BCL2L11 (Homo sapiens, UniProt P10415). The experiment is described as follows: Inhibition of his-tagged human recombinant Bcl-2 expressed in Escherichia coli /human Bim measured for 60 mins by TR-FRET based LanthaScreen Eu-Kinase binding assay.
Experiment [2] has as its target T1, Induced myeloid leukemia cell differentiation protein Mcl-1 (Homo sapiens, UniProt Q07820). Nature of the experiment: Binding affinity to N-terminal his6-tagged human recombinant Mcl-1 expressed in Escherichia coli assessed as dissociation constant by SPR analysis. For orientation: Surface plasmon resonance follows binding to a sensor surface in real time, without labels.

In experiment [3] the target is T1, Induced myeloid leukemia cell differentiation protein Mcl-1. The experiment is described as follows: Binding affinity to N-terminal his6-tagged human recombinant Mcl-1 expressed in Escherichia coli assessed as binding constant (Koff) by SPR analysis.
The target is the same in experiment [4]. The experiment is described as follows: Binding affinity to N-terminal his6-tagged human recombinant Mcl-1 expressed in Escherichia coli assessed as binding constant (Kon) by SPR analysis.
Another experiment has as its target Bcl-xL/BAK (Homo sapiens, UniProt Q07817). The experiment is described as follows: Inhibition of N-terminal GST-tagged Bcl-xL (1 to 209 residues) expressed in Escherichia coli /human Bak measured for 60 mins by TR-FRET based LanthaScreen Eu-Kinase binding assay.
In a further experiment the test system is MV4-11. The experiment is described as follows: Induction of apoptosis in human MV4-11 cells assessed as increase in caspase 3/7 activity measured after 6 hrs by Caspase-Glo 3/7 reagent based microplate reader analysis. The class given is functional, cell-based. The settings on record: MV4-11, 6 h.

Each structure is given as a SMILES string.

BCL2/BCL2L11, sequence (P10415 whole entry): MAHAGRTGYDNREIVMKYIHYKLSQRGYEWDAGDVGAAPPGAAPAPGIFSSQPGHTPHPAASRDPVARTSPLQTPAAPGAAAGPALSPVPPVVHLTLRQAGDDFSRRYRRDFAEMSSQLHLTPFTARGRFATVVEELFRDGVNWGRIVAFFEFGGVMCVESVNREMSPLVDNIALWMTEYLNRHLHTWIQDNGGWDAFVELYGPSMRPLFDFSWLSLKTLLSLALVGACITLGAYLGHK
BCL2/BCL2L11, sequence (O43521 whole entry, further chain): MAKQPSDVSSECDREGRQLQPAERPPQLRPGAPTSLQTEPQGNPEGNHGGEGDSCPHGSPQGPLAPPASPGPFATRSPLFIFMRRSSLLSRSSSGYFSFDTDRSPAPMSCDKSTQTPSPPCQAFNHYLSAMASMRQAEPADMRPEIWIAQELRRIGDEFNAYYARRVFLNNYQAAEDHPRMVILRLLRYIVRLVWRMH
Induced myeloid leukemia cell differentiation protein Mcl-1/Bcl-2-like protein 11, sequence (Q07820 whole entry): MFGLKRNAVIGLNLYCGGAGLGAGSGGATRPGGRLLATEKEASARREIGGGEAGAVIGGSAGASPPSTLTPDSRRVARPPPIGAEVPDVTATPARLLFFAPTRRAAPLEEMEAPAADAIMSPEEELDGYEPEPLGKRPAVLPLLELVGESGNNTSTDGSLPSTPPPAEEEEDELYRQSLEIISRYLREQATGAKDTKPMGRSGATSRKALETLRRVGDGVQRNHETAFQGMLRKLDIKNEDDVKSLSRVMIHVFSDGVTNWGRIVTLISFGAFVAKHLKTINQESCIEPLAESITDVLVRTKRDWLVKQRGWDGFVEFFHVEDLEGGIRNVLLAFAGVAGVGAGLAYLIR
Induced myeloid leukemia cell differentiation protein Mcl-1/Bcl-2-like protein 11, sequence (O43521 whole entry, further chain): as the sequence (O43521 whole entry, further chain) above
T1 sequence (Q07820 whole entry): as the sequence (Q07820 whole entry) above
Bcl-xL/BAK, sequence (Q07817 whole entry, the tested form may be a part): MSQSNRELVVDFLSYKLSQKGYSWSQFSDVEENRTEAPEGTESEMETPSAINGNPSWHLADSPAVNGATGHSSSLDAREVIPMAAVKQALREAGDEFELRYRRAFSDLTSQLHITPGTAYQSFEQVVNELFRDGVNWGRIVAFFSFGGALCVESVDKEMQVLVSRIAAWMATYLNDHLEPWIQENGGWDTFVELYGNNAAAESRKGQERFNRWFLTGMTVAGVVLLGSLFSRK
Bcl-xL/BAK, sequence (Q16611 whole entry, further chain, the tested form may be a part): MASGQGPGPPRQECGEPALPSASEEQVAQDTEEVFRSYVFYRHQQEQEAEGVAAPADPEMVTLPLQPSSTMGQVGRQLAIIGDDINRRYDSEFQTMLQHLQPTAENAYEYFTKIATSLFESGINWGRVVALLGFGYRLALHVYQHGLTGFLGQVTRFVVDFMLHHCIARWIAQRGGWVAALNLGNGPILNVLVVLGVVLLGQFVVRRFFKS

As usually defined, the IC50 is the point on the concentration scale where inhibition reaches its midpoint. In general, Kd refers to the concentration at which binding is half-saturated. As for `CN1CCCN[C@@H](Cc2ccc(Cl)cc2)CC(=O)N[C@H]2CCc3ccccc3N(CC(=O)N[C@H](Cc3ccc(Cl)c(/C=C/c4ccccc4)c3)CC1=O)C2=O`, the results for the IC50 (in experiment [1]; at BCL2/BCL2L11) were 2230 nM and 1000 nM, respectively. In experiment [2], the Kd is more than 10000 nM.
On to `CN1CCCN[C@@H](Cc2ccc(S(N)(=O)=O)cc2)CC(=O)N[C@H]2CCc3ccccc3N(CC(=O)N[C@H](Cc3ccc(Cl)c(Cl)c3)CC1=O)C2=O`, for which the IC50 was 558 nM in experiment [1] and 1000 nM on BCL2/BCL2L11. In addition, the equilibrium dissociation constant (Kd) in experiment [2] was found to be 720 nM.
On to `CNC(=O)C[C@@H](Cc1ccc(Cl)c(CCc2ccccc2)c1)NC(=O)CN1C(=O)[C@@H](NC(=O)C[C@@H](N)Cc2ccc(Cl)cc2)CCc2ccccc21`, for which the 50% inhibitory concentration (IC50) in experiment [1] is 193 nM; on BCL2/BCL2L11 it was 1000 nM.
Take `CN1CCCN[C@@H](Cc2ccc(Cl)cc2)CC(=O)N[C@H]2CCc3ccccc3N(CC(=O)N[C@H](Cc3ccc(Cl)c(Cl)c3)CC1=O)C2=O`: the figures for the half-inhibitory concentration (IC50) (in experiment [1]; on BCL2/BCL2L11) were 155 nM and 1000 nM, respectively. Further, the K in experiment [3] was 0.212 s⁻¹; in experiment [4] it was 7.9 10^5/M.s. The Kd in experiment [2] came out at 370 nM.
Consider `C[C@H]1CCN(C)C(=O)C[C@@H](Cc2ccc(Cl)c(Cl)c2)NC(=O)CN2C(=O)[C@H](CCc3ccccc32)NC(=O)C[C@H](Cc2ccc(Cl)cc2)N1`, for which the IC50 in experiment [1] was found to be 48 nM; on BCL2/BCL2L11, 1000 nM. Also, the equilibrium dissociation constant (Kd) in experiment [2] came to 120 nM.
Take `CNC(=O)C[C@@H](Cc1ccc(Cl)cc1)NC(=O)CN1C(=O)[C@@H](NC(=O)C[C@@H](N)Cc2ccccc2)CCc2ccccc21`: the IC50 in experiment [1] came out at 19500 nM; on BCL2/BCL2L11, 1000 nM.
For `CNC(=O)C[C@@H](Cc1ccc(Cl)c(Cc2ccccc2)c1)NC(=O)CN1C(=O)[C@@H](NC(=O)C[C@@H](N)Cc2ccc(Cl)cc2)CCc2ccccc21` the same measures were 9210 nM and 1000 nM.
For the compound `CNC(=O)C[C@@H](Cc1ccc(Cl)c(CCc2ccccc2)c1)NC(=O)CN1C(=O)[C@@H](NC(=O)C[C@@H](N)Cc2ccc(S(C)(=O)=O)cc2)CCc2ccccc21`, the IC50 in experiment [1] turned out to be 133 nM; on BCL2/BCL2L11, 1000 nM.
Consider `CCN[C@H](CC(=O)N[C@H]1CCc2ccccc2N(CC(=O)N[C@@H](CC(=O)NC)Cc2ccc(Cl)c(Cl)c2)C1=O)Cc1ccc(Cl)cc1`, for which the IC50 in experiment [1] is 2100 nM; at BCL2/BCL2L11, 1000 nM.
Turning to `CNC(=O)C[C@@H](Cc1ccc(Cl)c(-c2ccc(Cl)c(C)c2)c1)NC(=O)CN1C(=O)[C@@H](NC(=O)C[C@@H](N)Cc2ccc(Cl)cc2)CCc2ccccc21`, the IC50 in experiment [1] was 1930 nM; on BCL2/BCL2L11 it was more than 1000 nM.
As usually defined, the EC50 is the concentration giving half of the maximal effect. As for `CN1CCCN[C@@H](Cc2ccc(S(C)(=O)=O)cc2)CC(=O)N[C@H]2CCc3ccccc3N(CC(=O)N[C@H](Cc3ccc(Cl)c(CCc4ccccc4)c3)CC1=O)C2=O`, the values for the 50% inhibitory concentration (IC50) (in experiment [1]; on Bcl-xL/BAK; at BCL2/BCL2L11) were less than 3 nM, more than 99000 nM and 5500 nM, respectively. Also, the EC50 with MV4-11 is 3780 nM. Further, the K was 0.066 s⁻¹ in experiment [3] and 33 10^5/M.s in experiment [4]. In experiment [2], the Kd came to 20 nM.
Turning to `CN1CCCN[C@@H](Cc2ccc(Cl)cc2)CC(=O)N[C@H]2CCc3ccccc3N(CC(=O)N[C@H](Cc3ccc(Cl)c(CCc4ccccc4)c3)CC1=O)C2=O`, the IC50 in experiment [1] was found to be 45 nM; on BCL2/BCL2L11, 1000 nM. Also, the K in experiment [3] is 0.073 s⁻¹; in experiment [4], 3.7 10^5/M.s. Moreover, the Kd in experiment [2] was 340 nM.
Consider `CN1CCCN[C@@H](Cc2ccc([S+](C)[O-])cc2)CC(=O)N[C@H]2CCc3ccccc3N(CC(=O)N[C@H](Cc3ccc(Cl)c(Cl)c3)CC1=O)C2=O` (stereo not given in full), for which the IC50 turned out to be 742 nM in experiment [1] and 1000 nM on BCL2/BCL2L11. Besides, the dissociation constant (Kd) in experiment [2] is 770 nM.
`CN1CCCN[C@@H](Cc2ccc(S(C)(=O)=O)cc2)CC(=O)N[C@H]2CCc3ccccc3N(CC(=O)N[C@H](Cc3ccc(Cl)c(-c4cc5ccccc5o4)c3)CC1=O)C2=O`: the concentration for half-maximal inhibition (IC50) in experiment [1] was 116 nM; at BCL2/BCL2L11, 1000 nM. Moreover, the K in experiment [3] is 0.336 s⁻¹; in experiment [4], 9.5 10^5/M.s. For the same compound, the equilibrium dissociation constant (Kd) in experiment [2] amounted to 470 nM.
For `CN1CCCN[C@@H](Cc2ccc(S(C)(=O)=O)cc2)CC(=O)N[C@H]2CCc3ccccc3N(CC(=O)N[C@H](Cc3ccc(Cl)c(-c4ccc5ccccc5c4)c3)CC1=O)C2=O` the same measures were 112 nM, 1000 nM, 0.213 s⁻¹, 6.6 10^5/M.s and 290 nM.
For `CN1CCCCN[C@@H](Cc2ccc(Cl)cc2)CC(=O)N[C@H]2CCc3ccccc3N(CC(=O)N[C@H](Cc3ccc(Cl)c(Cl)c3)CC1=O)C2=O` the same measures were 122 nM, 1000 nM, 0.082 s⁻¹, 2.9 10^5/M.s and 290 nM.
Consider `CNC(=O)C[C@@H](Cc1ccc(Cl)cc1)NC(=O)CN1C(=O)[C@@H](NC(=O)C[C@@H](N)Cc2ccc(Cl)cc2)CCc2ccccc21`, for which the IC50 in experiment [1] was determined as 12500 nM; on BCL2/BCL2L11, 1000 nM.
Turning to `CNC(=O)C[C@@H](Cc1ccc(Cl)c(Cl)c1)NC(=O)CN1C(=O)[C@@H](NC(=O)C[C@@H](N)Cc2ccc(Cl)cc2)CCc2ccccc21`, the concentration for half-maximal inhibition (IC50) in experiment [1] turned out to be 1990 nM; at BCL2/BCL2L11, 1000 nM.
Take `O=C1C[C@@H](Cc2ccc(Cl)c(Cl)c2)NC(=O)CN2C(=O)[C@H](CCc3ccccc32)NC(=O)C[C@H](Cc2ccc(Cl)cc2)NCCCN1`: the concentration for half-maximal inhibition (IC50) in experiment [1] was 5210 nM; on BCL2/BCL2L11 it was more than 1000 nM. In addition, the K is 0.158 s⁻¹ in experiment [3] and 0.53 10^5/M.s in experiment [4]. Besides, the Kd in experiment [2] stood at 4480 nM.
For `CN1CCCN[C@@H](Cc2ccc(S(C)(=O)=O)cc2)CC(=O)N[C@H]2CCc3ccccc3N(CC(=O)N[C@H](Cc3ccc(Cl)c(C#Cc4ccccc4)c3)CC1=O)C2=O`, the figures for the IC50 (in experiment [1]; at BCL2/BCL2L11) were 47 nM and 1000 nM, respectively.
On to `CN1CCCN[C@@H](Cc2ccc(S(C)(=N)=O)cc2)CC(=O)N[C@H]2CCc3ccccc3N(CC(=O)N[C@H](Cc3ccc(Cl)c(Cl)c3)CC1=O)C2=O` (stereo not given in full), for which the IC50 amounted to 510 nM in experiment [1] and 1000 nM on BCL2/BCL2L11. The values for the K in experiment [3] and in experiment [4] were 0.476 s⁻¹ and 10.2 10^5/M.s, respectively. Further, the Kd in experiment [2] amounted to 420 nM.
For the compound `CNC(=O)C[C@@H](Cc1cccc(Cl)c1)NC(=O)CN1C(=O)[C@@H](NC(=O)C[C@@H](N)Cc2ccc(Cl)cc2)CCc2ccccc21`, the 50% inhibitory concentration (IC50) in experiment [1] was 57300 nM; at BCL2/BCL2L11 it was more than 1000 nM.
Regarding `CN1CCCN[C@@H](Cc2ccc(S(C)(=O)=O)cc2)CC(=O)N[C@H]2CCc3ccccc3N(CC(=O)N[C@H](Cc3ccc(Cl)c(/C=C/c4ccccc4)c3)CC1=O)C2=O`, the IC50 in experiment [1] was 375 nM; at BCL2/BCL2L11, more than 1000 nM. Further, the Kd in experiment [2] was determined as 1200 nM.
On to `CN1CCCN[C@@H](Cc2ccc(Cl)cc2)CC(=O)N[C@H]2CCc3ccccc3N(CC(=O)N[C@H](Cc3ccc(Cl)c(-c4cc5ccccc5o4)c3)CC1=O)C2=O`, for which the IC50 in experiment [1] is 1050 nM; at BCL2/BCL2L11 it was more than 1000 nM. In addition, the figures for the K in experiment [3] and in experiment [4] were 0.314 s⁻¹ and 1.6 10^5/M.s, respectively. Moreover, in experiment [2], the Kd was found to be 3600 nM.
For `CN1CCCCCN[C@@H](Cc2ccc(Cl)cc2)CC(=O)N[C@H]2CCc3ccccc3N(CC(=O)N[C@H](Cc3ccc(Cl)c(Cl)c3)CC1=O)C2=O`, the IC50 is 277 nM in experiment [1] and 1000 nM at BCL2/BCL2L11. Further, the Kd in experiment [2] came out at 530 nM.
For the compound `CN(C)C(=O)C[C@@H](Cc1ccc(Cl)c(Cl)c1)NC(=O)CN1C(=O)[C@@H](NC(=O)C[C@@H](N)Cc2ccc(Cl)cc2)CCc2ccccc21`, the IC50 in experiment [1] came to 2250 nM; at BCL2/BCL2L11, 1000 nM.
On to `CN1CCCN[C@@H](Cc2ccc(S(C)(=O)=O)cc2)CC(=O)N[C@H]2CCc3ccccc3N(CC(=O)N[C@H](Cc3ccc(Cl)c(Cl)c3)CC1=O)C2=O`, for which the IC50 was found to be 116 nM in experiment [1] and 1000 nM at BCL2/BCL2L11. Besides, in experiment [2], the Kd was 100 nM.
Consider `CNC(=O)C[C@@H](Cc1ccc(Cl)c(Cl)c1)NC(=O)CN1C(=O)[C@@H](NC(=O)C[C@@H](N)Cc2ccc(Br)cc2)CCc2ccccc21`, for which the IC50 came out at 1490 nM in experiment [1] and 1000 nM at BCL2/BCL2L11.
With `C[C@@H]1CCN(C)C(=O)C[C@@H](Cc2ccc(Cl)c(Cl)c2)NC(=O)CN2C(=O)[C@H](CCc3ccccc32)NC(=O)C[C@H](Cc2ccc(Cl)cc2)N1`, the IC50 in experiment [1] is 739 nM; at BCL2/BCL2L11 it was 1000 nM. Further, the dissociation constant (Kd) in experiment [2] worked out at 3540 nM.
